Read-outs that look alike come from different tables or passages of the source.
Test system: mice
Assay: Neuropharmacological Assay (SmartCube)
Type: in vivo
Settings: for minimal effective dose: Mus musculus, read-out: POTENCY (minimal effective dose, MED); for AD: ADHD (SmartCube probability) / AG: analgesic (SmartCube probability) / AX: anxiolytic (SmartCube probability) / CE: cognitive enhancer (SmartCube probability) / DP: anti-depressant (SmartCube probability) / MS: mood stabilizer (SmartCube probability) / PS: anti-psychotic (SmartCube probability) / SD: sedative hypnotic (SmartCube probability) / UN: uncharacterized CNS activity (SmartCube probability): mice, i.p. 15 min before test, most efficacious dose(s) of 3 doses
Source text: Neuropharmacological Assay (SmartCube™)
Neurosci. 2011 Sep. 9; 5:103 (doi: 10.3389/fnins.2011.00103) (“Roberds”). As reported in Roberds, because psychiatric diseases generally result from disorders of cell-cell communication, circuitry, intact systems are useful in detecting improvement in disease-relevant endpoints. These endpoints are typically behavioral in nature, often requiring human observation and interpretation. To facilitate testing of multiple compounds for behavioral effects relevant to psychiatric disease, PsychoGenics, Inc. (Tarrytown, N.Y., “PGI”) developed SmartCube™, an automated system in which behaviors of compound-treated mice are captured by digital video and analyzed with computer algorithms. (D. Brunner et al., Drug Discov. Today 2002, 7:S107-S112). PGI Analytical Systems uses data from SmartCube™ to compare the behavioral signature of a test compound to a database of behavioral signatures obtained using a large set of diverse reference compounds. (The composition of the database as well as validation of the method is further described in Roberds). In this way, the neuropharmacological effects of a test compound can be predicted by similarity to major classes of compounds, such as antipsychotics, anxiolytics and antidepressants.
The SmartCube™ system produces an activity signature indicating the probability that the activity of the test compound at the administered dose matches a given class of neuropharmacological agents. (See, e.g., Roberds, FIGS. 2 and 3). The test compound is simultaneously compared against multiple classes of agents; thus, a separate probability is generated for each behavioral effect measured (e.g., anxiolytic activity, analgesic activity, etc.). In the table below, these probabilities are reported for each behavioral effect measured as follows:
where LOQ is the limit of quantification.
Provided compounds were dissolved in a mixture of Pharmasolve™ (N-methyl-2-pyrrolidone), polyethylene glycol and propylene glycol, and were injected i.p. 15 min. before the behavioral test. For each compound, injections were administered at 3 different doses. For each behavioral effect measured, results for the most efficacious dose(s) are presented. In the table below, DP: anti-depressant; AX: anxiolytic; SD: sedative hypnotic; PS: anti-psychotic; MS: mood stabilizer; AD: ADHD; CE: cognitive enhancer; AG: analgesic; UN: uncharacterized CNS activity.
The potency of many of the compounds in the table was also determined in the SmartCube™ system. Test compounds were routinely examined at dose levels of 0.3, 1, 3 10 and 30 mg per kg (mpk), although the dose range was increased or decreased if necessary to obtain a full dose response curve. A compound's minimal effective dose (MED) is a measure of the compounds potency. The MED was defined as the dose (in mpk) having 50% or more total activity in SmartCube.

[1] = MED = dose having 50% or more total activity in SmartCube

Structure (SMILES) | minimal effective dose [1] | AD: ADHD (SmartCube probability) | AG: analgesic (SmartCube probability) | AX: anxiolytic (SmartCube probability) | CE: cognitive enhancer (SmartCube probability) | DP: anti-depressant (SmartCube probability) | MS: mood stabilizer (SmartCube probability) | PS: anti-psychotic (SmartCube probability) | SD: sedative hypnotic (SmartCube probability) | UN: uncharacterized CNS activity (SmartCube probability) | minimal effective dose
CNC[C@@H]1OCCc2c(O)cc3c(c21)OCO3 (single isomer, unassigned) [Example 103] | > 30 mg/kg | + (LOQ≤ + <5%) | + (LOQ≤ + <5%) | + (LOQ≤ + <5%) | + (LOQ≤ + <5%) | + (LOQ≤ + <5%) | + (LOQ≤ + <5%) | + (LOQ≤ + <5%) | + (LOQ≤ + <5%) | + (LOQ≤ + <5%) | 
CNC[C@H]1OCCc2c(O)cc3c(c21)OCO3 (single isomer, unassigned) [Example 104] | < 3 mg/kg | + (LOQ≤ + <5%) | + (LOQ≤ + <5%) | +++ (25%≤ +++ <50%) | ++ (5%≤ ++ <25%) | ++++ (50%≤ ++++) | + (LOQ≤ + <5%) | + (LOQ≤ + <5%) | ++ (5%≤ ++ <25%) | ++ (5%≤ ++ <25%) | 
CNC[C@@H]1OC[C@@H](O)c2ccc3c(c21)OCO3 (single isomer, unassigned) [Example 111] | 10 to 30 mg/kg | + (LOQ≤ + <5%) | + (LOQ≤ + <5%) | ++ (5%≤ ++ <25%) | + (LOQ≤ + <5%) | ++++ (50%≤ ++++) | + (LOQ≤ + <5%) | ++ (5%≤ ++ <25%) | + (LOQ≤ + <5%) | + (LOQ≤ + <5%) | 
CNC[C@H]1OC[C@H](O)c2ccc3c(c21)OCO3 (single isomer, unassigned) [Example 112] | > 30 mg/kg | + (LOQ≤ + <5%) | + (LOQ≤ + <5%) | ++ (5%≤ ++ <25%) | + (LOQ≤ + <5%) | ++ (5%≤ ++ <25%) | + (LOQ≤ + <5%) | + (LOQ≤ + <5%) | + (LOQ≤ + <5%) | + (LOQ≤ + <5%) | 
CNC[C@H]1OC[C@@H](O)c2ccc3c(c21)OCO3 (single isomer, unassigned) [Example 113] | > 30 mg/kg | + (LOQ≤ + <5%) | + (LOQ≤ + <5%) | ++ (5%≤ ++ <25%) | + (LOQ≤ + <5%) | + (LOQ≤ + <5%) | + (LOQ≤ + <5%) | + (LOQ≤ + <5%) | + (LOQ≤ + <5%) | + (LOQ≤ + <5%) | 
CNC[C@@H]1OC[C@H](O)c2ccc3c(c21)OCO3 (single isomer, unassigned) [Example 114] | 10 to 30 mg/kg | + (LOQ≤ + <5%) | + (LOQ≤ + <5%) | ++ (5%≤ ++ <25%) | + (LOQ≤ + <5%) | + (LOQ≤ + <5%) | + (LOQ≤ + <5%) | ++ (5%≤ ++ <25%) | + (LOQ≤ + <5%) | +++ (25%≤ +++ <50%) | 
CNC[C@H]1OCCc2cc3c(cc21)OCO3 (stereo in doubt) [Example 5, (S)-1-(7,8-dihydro-5H-[1,3]dioxolo[4,5-g]isochromen-5-yl)-N-methylmethanamine] | > 30 mg/kg | + (LOQ≤ + <5%) | ++ (5%≤ ++ <25%) | ++ (5%≤ ++ <25%) | + (LOQ≤ + <5%) | + (LOQ≤ + <5%) | + (LOQ≤ + <5%) | + (LOQ≤ + <5%) | + (LOQ≤ + <5%) | + (LOQ≤ + <5%) | 
CNC[C@@H]1OCCc2cc3c(cc21)OCO3 (stereo in doubt) [Example 6, (R)-1-(7,8-dihydro-5H-[1,3]dioxolo[4,5-g]isochromen-5-yl)-N-methylmethanamine] | 10 to 30 mg/kg | + (LOQ≤ + <5%) | + (LOQ≤ + <5%) | ++ (5%≤ ++ <25%) | + (LOQ≤ + <5%) | + (LOQ≤ + <5%) | ++ (5%≤ ++ <25%) | ++ (5%≤ ++ <25%) | + (LOQ≤ + <5%) | ++++ (50%≤ ++++) | 
CNC[C@H]1OCCc2ccc3c(c21)OCO3 [Example 1, (S)-1-(6,9-dihydro-7H-[1,3]dioxolo[4,5-h]isochromen-9-yl)-N-methylmethanamine] |  | + (LOQ≤ + <5%) | + (LOQ≤ + <5%) | ++ (5%≤ ++ <25%) | + (LOQ≤ + <5%) | ++++ (50%≤ ++++) | + (LOQ≤ + <5%) | ++ (5%≤ ++ <25%) | ++ (5%≤ ++ <25%) | + (LOQ≤ + <5%) | < 3 mg/kg
CNC[C@H]1OCCc2c1ccc1c2OCO1 [Example 3, (S)-1-(8,9-dihydro-6H-[1,3]dioxolo[4,5-f]isochromen-6-yl)-N-methylmethanamine] | 10 to 30 mg/kg | ++ (5%≤ ++ <25%) | ++ (5%≤ ++ <25%) | ++ (5%≤ ++ <25%) | + (LOQ≤ + <5%) | +++ (25%≤ +++ <50%) | + (LOQ≤ + <5%) | + (LOQ≤ + <5%) | + (LOQ≤ + <5%) | + (LOQ≤ + <5%) | 
CNC[C@@H]1OCCc2c1ccc1c2OCO1 [Example 4, (R)-1-(8,9-dihydro-6H-[1,3]dioxolo[4,5-f]isochromen-6-yl)-N-methylmethanamine] | 3 to 10 mg/kg | + (LOQ≤ + <5%) | ++ (5%≤ ++ <25%) | + (LOQ≤ + <5%) | + (LOQ≤ + <5%) | ++++ (50%≤ ++++) | + (LOQ≤ + <5%) | + (LOQ≤ + <5%) | + (LOQ≤ + <5%) | + (LOQ≤ + <5%) | 
NC[C@H]1OCCc2ccc3c(c21)OCO3 [Example 7, (S)-(6,9-dihydro-7H-[1,3]dioxolo[4,5-h]isochromen-9-yl)methanamine] | < 3 mg/kg | ++ (5%≤ ++ <25%) | +++ (25%≤ +++ <50%) | +++ (25%≤ +++ <50%) | ++ (5%≤ ++ <25%) | ++ (5%≤ ++ <25%) | ++ (5%≤ ++ <25%) | ++ (5%≤ ++ <25%) | + (LOQ≤ + <5%) | ++ (5%≤ ++ <25%) | 

Reference: patent publication US10196403B2, “Compounds and compositions and uses thereof” (Sunovion Pharmaceuticals Inc., priority 2016, dated 2019)
